In ChEMBL document CHEMBL1126209, “Synthesis of a peptidyl 2,2-difluoro-3-aminopropionate” (Bioorg Med Chem Lett, 1992):
Residues, ends and D or L forms follow the SMILES beside them. *: point of attachment. Dansyl = CN(C)c1cccc2c(S(=O)(=O)*)cccc12; Cbz = O=C(OCc1ccccc1)*; CF3 = FC(F)(F)*

Target: T1, Neutrophil elastase (Homo sapiens, UniProt P08246)
T1 sequence (P08246 whole entry): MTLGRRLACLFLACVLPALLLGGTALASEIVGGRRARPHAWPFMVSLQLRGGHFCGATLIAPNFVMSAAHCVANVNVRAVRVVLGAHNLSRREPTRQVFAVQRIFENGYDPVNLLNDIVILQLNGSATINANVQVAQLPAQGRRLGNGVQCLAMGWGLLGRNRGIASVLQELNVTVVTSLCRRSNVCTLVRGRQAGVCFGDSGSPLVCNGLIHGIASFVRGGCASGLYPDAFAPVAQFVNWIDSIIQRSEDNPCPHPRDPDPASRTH
Experiment: Compound was evaluated In vitro for inhibition of human neutrophil elastase

| Ki [nM] | SMILES |
| --- | --- |
| 10 | CC(C)[C@H](NC(=O)[C@@H]1CCCN1C(=O)[C@H](C)NC(=O)[C@H](C)NS(=O)(=O)c1cccc2c(N(C)C)cccc12)C(=O)C(F)(F)F (Dansyl-AAPV-CF3) |
| > 300000 | CCOC(=O)C(F)(F)C(NC(=O)C1CCCN1C(=O)C(C)NC(=O)C(C)NC(=O)OC(C)(C)C)C(C)C (centres undefined) |
| 44 | CC(C)[C@H](NC(=O)[C@@H]1CCCN1C(=O)[C@H](C)NC(=O)[C@H](C)NCC(=O)OC(C)(C)C)C(=O)C(F)(F)F |
| 1 | CC(C)[C@H](NC(=O)[C@@H]1CCCN1C(=O)[C@H](C)NC(=O)[C@H](C)NC(=O)OCc1ccccc1)C(=O)C(F)(F)F (Cbz-AAPV-CF3) |
